This is an account of results in PubChem BioAssay AID1053199 (The Scripps Research Institute Molecular Screening Center, 2014).

Each structure is given as a SMILES string. Activity calls are given as the source filed them.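 How the source made its calls: active means inhibition at or above 50% when tested at 10 µM; inactive means inhibition below 50% at 10 µM.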

The target in the assay is Methionine--tRNA ligase, mitochondrial (Homo sapiens) (UniProt Q96GW9). The assay can be described thus: inhibitors of human mitochondrial methionyl-tRNA synthetase – biochemical, radioactivity, round 3, selectivity assay for T. brucei MetRS inhibitor project, late-stage follow-up (AID 1053199). Particulars: recombinant human mitochondrial MetRS, [3H]Met aminoacylation, stronger effect = higher value.
Sequence of Methionine--tRNA ligase, mitochondrial (Homo sapiens) (Q96GW9 whole entry, looked up): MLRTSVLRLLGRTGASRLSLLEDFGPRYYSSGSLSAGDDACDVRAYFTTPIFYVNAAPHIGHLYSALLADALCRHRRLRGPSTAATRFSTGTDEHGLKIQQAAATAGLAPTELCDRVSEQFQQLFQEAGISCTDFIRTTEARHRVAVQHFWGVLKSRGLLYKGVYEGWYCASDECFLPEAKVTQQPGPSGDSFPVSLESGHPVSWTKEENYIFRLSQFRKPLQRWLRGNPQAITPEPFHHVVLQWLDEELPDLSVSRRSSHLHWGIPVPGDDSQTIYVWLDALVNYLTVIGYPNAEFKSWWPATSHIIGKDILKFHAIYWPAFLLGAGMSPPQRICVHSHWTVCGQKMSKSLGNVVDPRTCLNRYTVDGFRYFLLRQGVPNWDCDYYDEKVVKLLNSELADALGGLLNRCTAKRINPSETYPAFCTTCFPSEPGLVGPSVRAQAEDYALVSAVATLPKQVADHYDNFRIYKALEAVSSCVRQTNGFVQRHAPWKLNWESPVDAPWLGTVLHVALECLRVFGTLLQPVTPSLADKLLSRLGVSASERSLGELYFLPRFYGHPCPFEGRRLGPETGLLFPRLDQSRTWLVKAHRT

What is called inhibition is the relative decrease from the control value, in per cent. As for `CCN(CC)C(=O)C(=O)c1cn(CC(=O)Nc2cc(Oc3ccc(F)cc3)cc(C(F)(F)F)c2)c2ccccc12`, the inhibition by setting is: (at 10 µM) 7.56% (inactive); (inhibition, at 1 µM) -2.44%.
On to `CCN(CC)C(=O)C(=O)c1cn(CC(=O)Nc2cc(Oc3ccc(OC)cc3)cc(C(F)(F)F)c2)c2ccccc12`, for which the inhibition was -1.74% (inactive) (at 10 µM) and -4.97% (inhibition, at 1 µM).
On the same counts, the results for `CCN(CC)C(=O)C(=O)c1cn(CC(=O)Nc2cc(Oc3ccccc3F)cc(C(F)(F)F)c2)c2ccccc12` are -4.45% (inactive) and -5.27%.
For `O=C(Cc1ccc(Nc2nc3ccc(Br)cc3[nH]2)cc1)NCCc1cccs1`, in that order: 0.91% (inactive) and 5.12%.
On the same counts, the results for `CCN(CC)C(=O)Cc1cn(CC(=O)Nc2cccc(C(F)(F)F)c2)c2ccccc12` are -11.2% (inactive) and -8.45%.
Turning to `CCN(CC)C(=O)C(=O)c1cn(CC(=O)Nc2cc(Oc3ccccc3OC)cc(C(F)(F)F)c2)c2ccccc12`, the inhibition (at 10 µM) was 6.34% (inactive) and the inhibition (inhibition, at 1 µM) was -6.59%.
On to `Nc1c(Cl)ncnc1Nc1ccc(C(=O)O)cc1`, for which the inhibition reads like this: (at 10 µM) 6.59% (inactive); (inhibition, at 1 µM) 2.59%.
As for `O=C(Cn1cc(C(=O)C(=O)NCc2ccccc2)c2ccccc21)Nc1cc(Oc2ccccc2)cc(C(F)(F)F)c1`, the inhibition runs as follows: (at 10 µM) -8.53% (inactive); (inhibition, at 1 µM) -1.57%.
On the same counts, the results for `CCN(CC)C(=O)C(=O)c1cn(CCNc2cc(Oc3ccccc3)cc(C(F)(F)F)c2)c2ccccc12` are 2.68% (inactive) and -2.31%.
`CCN(CC)C(=O)C(=O)c1cn(CCNc2cccc(C(F)(F)F)c2)c2ccccc12`: the inhibition is 0.1% (inactive) (at 10 µM) and -5.12% (inhibition, at 1 µM).
